Test results: PMC5564600 (Oncotarget, 2017)

Legend:
Assay in all cases: biochemical
Assay type in all cases: binding
panel of 442 kinases [1] = target: T1, panel of 442 kinases (Homo sapiens, UniProt P07949, V804M); settings: kinase RET(V804M); for remaining activity at 1 µM: read-out: RET(V804M) (% of control at 1 µM)
T1 construct: purchased Ambit Biosciences (scanMAXX KINOMEscan)

panel of 442 kinases [2] = target: T2, panel of 442 kinases (Homo sapiens, UniProt Q15139); settings: kinase PRKD1; for remaining activity at 1 µM: read-out: PRKD1 (% of control at 1 µM)
T2 construct: purchased Ambit Biosciences (scanMAXX KINOMEscan)
T2 sequence (Q15139 1-912): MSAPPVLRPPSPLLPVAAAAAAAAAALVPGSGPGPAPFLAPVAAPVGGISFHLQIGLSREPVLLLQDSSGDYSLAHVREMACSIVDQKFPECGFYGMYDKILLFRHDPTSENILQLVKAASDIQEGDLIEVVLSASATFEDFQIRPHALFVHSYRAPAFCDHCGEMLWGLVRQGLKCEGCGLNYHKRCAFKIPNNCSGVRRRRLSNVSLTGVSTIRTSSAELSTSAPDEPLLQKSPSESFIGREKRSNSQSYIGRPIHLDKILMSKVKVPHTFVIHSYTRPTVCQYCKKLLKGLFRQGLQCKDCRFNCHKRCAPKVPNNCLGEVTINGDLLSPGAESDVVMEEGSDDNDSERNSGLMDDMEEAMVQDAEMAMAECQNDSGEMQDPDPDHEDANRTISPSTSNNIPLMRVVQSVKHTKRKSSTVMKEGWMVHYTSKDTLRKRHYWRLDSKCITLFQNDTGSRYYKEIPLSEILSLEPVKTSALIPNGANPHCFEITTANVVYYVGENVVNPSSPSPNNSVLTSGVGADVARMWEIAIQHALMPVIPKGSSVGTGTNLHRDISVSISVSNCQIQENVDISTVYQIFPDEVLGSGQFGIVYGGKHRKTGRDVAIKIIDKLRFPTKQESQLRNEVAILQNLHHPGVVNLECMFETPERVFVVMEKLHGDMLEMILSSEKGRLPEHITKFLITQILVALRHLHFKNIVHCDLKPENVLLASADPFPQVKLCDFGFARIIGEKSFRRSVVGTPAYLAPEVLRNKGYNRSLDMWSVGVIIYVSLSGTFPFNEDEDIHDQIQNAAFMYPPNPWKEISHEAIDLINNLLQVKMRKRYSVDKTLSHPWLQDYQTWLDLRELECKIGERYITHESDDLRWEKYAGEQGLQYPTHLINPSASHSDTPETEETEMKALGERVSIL

panel of 442 kinases [3] = target: T3, panel of 442 kinases (Homo sapiens, UniProt Q9Y6M4); settings: CSNK1G3; for remaining activity at 1 µM: read-out: % of control at 1 µM
T3 construct: purchased Ambit Biosciences (scanMAXX KINOMEscan)

panel of 442 kinases [4] = target: T4, panel of 442 kinases (Homo sapiens, UniProt Q13555); settings: CAMK2G; for remaining activity at 1 µM: read-out: % of control at 1 µM
T4 construct: purchased Ambit Biosciences (scanMAXX KINOMEscan)

panel of 442 kinases [5] = target: T5, panel of 442 kinases (Homo sapiens, UniProt Q96GD4); settings: AURKB; for remaining activity at 1 µM: read-out: % of control at 1 µM
T5 construct: purchased Ambit Biosciences (scanMAXX KINOMEscan)

panel of 442 kinases [6] = target: T6, panel of 442 kinases (Homo sapiens, UniProt P21709); settings: EPHA1; for remaining activity at 1 µM: read-out: % of control at 1 µM
T6 construct: purchased Ambit Biosciences (scanMAXX KINOMEscan)
T6 sequence (P21709 26-976): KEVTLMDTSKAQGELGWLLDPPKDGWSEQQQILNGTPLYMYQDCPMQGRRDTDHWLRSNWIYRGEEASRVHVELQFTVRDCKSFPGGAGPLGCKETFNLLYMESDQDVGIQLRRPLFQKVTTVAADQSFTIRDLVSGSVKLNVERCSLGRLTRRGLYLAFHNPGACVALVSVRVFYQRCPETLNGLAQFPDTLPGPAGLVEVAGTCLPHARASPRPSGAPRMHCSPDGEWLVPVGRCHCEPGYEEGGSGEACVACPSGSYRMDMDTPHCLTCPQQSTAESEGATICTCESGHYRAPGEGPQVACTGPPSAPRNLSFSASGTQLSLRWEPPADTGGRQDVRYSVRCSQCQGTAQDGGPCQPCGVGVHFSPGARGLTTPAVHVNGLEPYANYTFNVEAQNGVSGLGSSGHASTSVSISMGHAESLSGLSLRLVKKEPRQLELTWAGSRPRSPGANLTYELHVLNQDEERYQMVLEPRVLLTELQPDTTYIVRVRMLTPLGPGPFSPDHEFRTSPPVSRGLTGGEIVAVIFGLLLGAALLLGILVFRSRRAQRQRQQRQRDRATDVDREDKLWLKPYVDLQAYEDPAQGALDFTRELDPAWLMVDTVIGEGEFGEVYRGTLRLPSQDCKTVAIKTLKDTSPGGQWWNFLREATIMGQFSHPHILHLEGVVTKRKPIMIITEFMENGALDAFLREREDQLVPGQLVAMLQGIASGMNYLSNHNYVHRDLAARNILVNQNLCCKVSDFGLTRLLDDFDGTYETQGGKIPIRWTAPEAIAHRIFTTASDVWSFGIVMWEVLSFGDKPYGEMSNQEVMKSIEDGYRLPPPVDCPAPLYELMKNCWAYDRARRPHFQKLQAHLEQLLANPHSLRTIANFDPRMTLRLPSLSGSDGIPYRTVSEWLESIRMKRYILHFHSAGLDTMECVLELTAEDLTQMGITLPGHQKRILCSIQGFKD

panel of 442 kinases [7] = target: T7, panel of 442 kinases (Homo sapiens, UniProt O75716); settings: kinase STK16; for remaining activity at 1 µM: read-out: STK16 (% of control at 1 µM)
T7 construct: purchased Ambit Biosciences (scanMAXX KINOMEscan)

[8] = 10 µM, read-out: % of control at 10 µM

T4 sequence (Q13555 whole entry): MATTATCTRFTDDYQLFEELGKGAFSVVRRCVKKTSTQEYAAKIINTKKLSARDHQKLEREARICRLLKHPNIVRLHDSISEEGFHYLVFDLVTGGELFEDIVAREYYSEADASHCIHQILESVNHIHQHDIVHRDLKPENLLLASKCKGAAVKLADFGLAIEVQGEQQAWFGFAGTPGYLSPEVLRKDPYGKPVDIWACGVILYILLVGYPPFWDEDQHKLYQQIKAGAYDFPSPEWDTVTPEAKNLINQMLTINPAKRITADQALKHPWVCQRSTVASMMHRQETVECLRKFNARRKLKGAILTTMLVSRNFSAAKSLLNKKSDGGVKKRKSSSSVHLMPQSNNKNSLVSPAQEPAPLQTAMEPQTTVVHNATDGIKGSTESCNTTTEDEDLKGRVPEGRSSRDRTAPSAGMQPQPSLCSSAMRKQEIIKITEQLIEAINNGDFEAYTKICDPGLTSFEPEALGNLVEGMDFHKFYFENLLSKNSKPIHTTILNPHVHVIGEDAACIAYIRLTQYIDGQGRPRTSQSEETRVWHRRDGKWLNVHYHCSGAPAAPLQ
T1 sequence (P07949 29-1114 V804M): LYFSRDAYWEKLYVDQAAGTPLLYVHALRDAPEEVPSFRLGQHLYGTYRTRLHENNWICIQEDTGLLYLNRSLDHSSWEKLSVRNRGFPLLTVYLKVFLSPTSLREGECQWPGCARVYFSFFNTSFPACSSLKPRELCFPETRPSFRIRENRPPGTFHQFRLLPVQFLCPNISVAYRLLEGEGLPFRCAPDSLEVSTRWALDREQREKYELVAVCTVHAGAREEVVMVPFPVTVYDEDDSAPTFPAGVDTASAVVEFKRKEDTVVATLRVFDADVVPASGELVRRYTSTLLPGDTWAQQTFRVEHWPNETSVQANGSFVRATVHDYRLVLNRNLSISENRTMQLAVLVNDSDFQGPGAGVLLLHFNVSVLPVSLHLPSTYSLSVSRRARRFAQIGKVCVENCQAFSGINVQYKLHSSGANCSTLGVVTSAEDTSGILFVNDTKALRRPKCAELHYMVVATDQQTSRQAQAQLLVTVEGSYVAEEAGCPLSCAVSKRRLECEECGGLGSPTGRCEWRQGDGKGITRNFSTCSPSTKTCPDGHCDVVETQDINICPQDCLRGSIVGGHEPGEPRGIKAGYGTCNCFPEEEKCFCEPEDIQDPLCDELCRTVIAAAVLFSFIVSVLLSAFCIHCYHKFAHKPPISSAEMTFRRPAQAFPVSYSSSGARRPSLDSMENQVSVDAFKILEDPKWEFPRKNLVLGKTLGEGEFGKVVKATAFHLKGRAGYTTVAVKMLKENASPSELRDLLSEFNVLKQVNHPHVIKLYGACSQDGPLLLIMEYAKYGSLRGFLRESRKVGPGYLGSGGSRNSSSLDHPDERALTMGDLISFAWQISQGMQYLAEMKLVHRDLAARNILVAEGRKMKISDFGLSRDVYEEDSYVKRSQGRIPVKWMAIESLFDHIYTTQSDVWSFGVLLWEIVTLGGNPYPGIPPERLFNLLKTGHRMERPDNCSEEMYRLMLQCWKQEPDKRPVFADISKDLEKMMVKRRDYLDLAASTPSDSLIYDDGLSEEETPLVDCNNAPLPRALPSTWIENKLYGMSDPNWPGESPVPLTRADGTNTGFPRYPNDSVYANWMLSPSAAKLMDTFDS
T5 sequence (Q96GD4 whole entry): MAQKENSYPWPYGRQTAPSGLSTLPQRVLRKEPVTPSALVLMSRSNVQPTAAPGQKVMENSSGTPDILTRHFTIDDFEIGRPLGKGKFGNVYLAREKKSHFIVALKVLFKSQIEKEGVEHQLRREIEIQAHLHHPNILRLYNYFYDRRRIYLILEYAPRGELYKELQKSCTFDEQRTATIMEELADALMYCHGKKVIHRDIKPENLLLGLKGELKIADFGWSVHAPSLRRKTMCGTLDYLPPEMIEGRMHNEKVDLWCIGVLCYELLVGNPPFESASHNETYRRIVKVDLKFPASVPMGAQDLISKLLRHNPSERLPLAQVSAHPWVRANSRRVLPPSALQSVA
T3 sequence (Q9Y6M4 whole entry): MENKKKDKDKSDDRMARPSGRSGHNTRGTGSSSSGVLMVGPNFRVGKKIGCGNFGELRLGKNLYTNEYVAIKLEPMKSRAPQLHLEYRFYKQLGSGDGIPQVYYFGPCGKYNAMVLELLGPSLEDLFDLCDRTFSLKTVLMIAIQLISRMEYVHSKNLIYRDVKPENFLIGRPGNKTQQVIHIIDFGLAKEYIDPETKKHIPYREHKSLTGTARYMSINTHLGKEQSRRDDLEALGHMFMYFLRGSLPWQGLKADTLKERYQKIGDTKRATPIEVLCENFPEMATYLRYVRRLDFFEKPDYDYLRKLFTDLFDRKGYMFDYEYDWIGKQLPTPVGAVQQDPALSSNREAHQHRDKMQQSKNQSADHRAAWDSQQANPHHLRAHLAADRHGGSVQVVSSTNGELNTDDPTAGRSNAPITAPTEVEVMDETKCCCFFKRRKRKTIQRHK
T7 sequence (O75716 whole entry): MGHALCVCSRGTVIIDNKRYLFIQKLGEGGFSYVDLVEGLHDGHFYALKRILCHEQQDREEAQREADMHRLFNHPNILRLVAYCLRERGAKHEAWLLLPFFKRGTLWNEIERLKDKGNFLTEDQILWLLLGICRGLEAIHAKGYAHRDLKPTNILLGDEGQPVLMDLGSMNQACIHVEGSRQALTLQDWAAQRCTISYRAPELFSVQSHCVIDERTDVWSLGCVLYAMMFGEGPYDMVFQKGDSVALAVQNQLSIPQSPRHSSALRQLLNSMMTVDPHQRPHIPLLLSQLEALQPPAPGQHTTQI

## Nc1cc(C(F)(F)F)c(-c2cc(N3CCOCC3)nc(N3CCOCC3)n2)cn1 [Buparlisib]
Panel of 442 kinases [1]
  remaining activity at 1 µM: 97%
Panel of 442 kinases [1]; 10 µM, read-out: RET(V804M) (% of control at 10 µM)
  remaining activity at 10 µM: 100%
Panel of 442 kinases [2]
  remaining activity at 1 µM: 100%
Panel of 442 kinases [2]; 10 µM, read-out: PRKD1 (% of control at 10 µM)
  remaining activity at 10 µM: 100%
Panel of 442 kinases [3]
  remaining activity at 1 µM: 100%
Panel of 442 kinases [3]; [8]
  remaining activity at 10 µM: 100%
Panel of 442 kinases [4]
  remaining activity at 1 µM: 100%
Panel of 442 kinases [4]; [8]
  remaining activity at 10 µM: 100%
Panel of 442 kinases [5]
  remaining activity at 1 µM: 93%
Panel of 442 kinases [5]; [8]
  remaining activity at 10 µM: 100%
Panel of 442 kinases [6]
  remaining activity at 1 µM: 90%
Panel of 442 kinases [6]; [8]
  remaining activity at 10 µM: 100%
Panel of 442 kinases [7]
  remaining activity at 1 µM: 100%
Panel of 442 kinases [7]; 10 µM, read-out: STK16 (% of control at 10 µM)
  remaining activity at 10 µM: 92%

## COc1ncc(-c2ccc3nccc(-c4ccnnc4)c3c2)cc1NS(=O)(=O)c1ccc(F)cc1F [Omipalisib]
Panel of 442 kinases [1]
  remaining activity at 1 µM: 90%
Panel of 442 kinases [2]
  remaining activity at 1 µM: 100%
Panel of 442 kinases [3]
  remaining activity at 1 µM: 100%
Panel of 442 kinases [4]
  remaining activity at 1 µM: 100%
Panel of 442 kinases [5]
  remaining activity at 1 µM: 100%
Panel of 442 kinases [6]
  remaining activity at 1 µM: 97%
Panel of 442 kinases [7]
  remaining activity at 1 µM: 42%

## FC(F)c1nc2ccccc2n1-c1nc(N2CCOCC2)nc(N2CCOCC2)n1 [ZSTK474, 2-(difluoromethyl)-1-[4,6-di(4-morpholinyl)-1,3,5-triazin-2-yl]-1H-benzimidazole]
Panel of 442 kinases [1]
  remaining activity at 1 µM: 100%
Panel of 442 kinases [2]
  remaining activity at 1 µM: 100%
Panel of 442 kinases [3]
  remaining activity at 1 µM: 100%
Panel of 442 kinases [4]
  remaining activity at 1 µM: 100%
Panel of 442 kinases [5]
  remaining activity at 1 µM: 90%
Panel of 442 kinases [6]
  remaining activity at 1 µM: 99%
Panel of 442 kinases [7]
  remaining activity at 1 µM: 100%

## Cn1c(=O)n(-c2ccc(C(C)(C)C#N)cc2)c2c3cc(-c4cnc5ccccc5c4)ccc3ncc21 [Dactolisib, 2-methyl-2-[4-(3-methyl-2-oxo-8-quinolin-3-yl-2,3-dihydroimidazo[4,5-c]quinolin-1-yl)-phenyl] propionitrile]
Panel of 442 kinases [2]
  remaining activity at 1 µM: 100%
Panel of 442 kinases [3]
  remaining activity at 1 µM: 72%
Panel of 442 kinases [4]
  remaining activity at 1 µM: 88%
Panel of 442 kinases [6]
  remaining activity at 1 µM: 100%
Panel of 442 kinases [7]
  remaining activity at 1 µM: 100%
